Assay results taken from the supplement of paper PMC8671470.
± gives the standard deviation of the averaged measurements.

Assays:
Conditions in all cases: 72 h
[1] = tested on: myeloid leukemia patient primary cells Pat.10; experiment: cell viability (% survival relative to DMSO control); higher = less cytotoxic
In short: (§1)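 Where an area under the curve appears, it was computed with the drc and PharmacoGx R packages from log-logistic fits. Those fits used four parameters. The underlying viability data came from CellTiter-Glo after 72 h, normalised to DMSO and 10 μM proteasome-inhibitor wells, with thawed, Ficoll-purified AML or CML patient mononuclear cells at 10,000 cells/well in RPMI 1640 with 10% FBS on 384-well plates pre-printed with 70 compounds at five tenfold concentrations (1–10,000 nM) in duplicate.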

[2] = tested on: myeloid leukemia patient primary cells Pat.11; experiment: as above
In short: as §1

[3] = tested on: myeloid leukemia patient primary cells Pat.15; experiment: as above
In short: as §1

[4] = tested on: myeloid leukemia patient primary cells Pat.4; experiment: as above
In short: as §1

[5] = tested on: myeloid leukemia patient primary cells Pat.14; experiment: as above
In short: as §1

[6] = tested on: myeloid leukemia patient primary cells Pat.5; experiment: as above
In short: as §1

[7] = tested on: myeloid leukemia patient primary cells Pat.13; experiment: as above
In short: as §1

[8] = tested on: myeloid leukemia patient primary cells Pat.12; experiment: as above
In short: as §1

[9] = tested on: myeloid leukemia patient primary cells Pat.2; experiment: as above
In short: as §1

[10] = tested on: myeloid leukemia patient primary cells Pat.8; experiment: as above
In short: as §1

[11] = tested on: myeloid leukemia patient primary cells Pat.9; experiment: as above
In short: as §1

[12] = tested on: myeloid leukemia patient primary cells Pat.3; experiment: as above
In short: as §1

[13] = tested on: myeloid leukemia patient primary cells Pat.7; experiment: as above
In short: as §1

[14] = tested on: myeloid leukemia patient primary cells Pat.1; experiment: as above
In short: as §1

[15] = tested on: HL-60; experiment: cell viability (% survival relative to DMSO control); higher = less cytotoxic
In short: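 Four-parameter log-logistic fits in drc and PharmacoGx supplied area under the curve where it is given. Underlying viability came from CellTiter-Glo, normalised to DMSO and proteasome-inhibitor wells, with the proteasome inhibitor at 10 μM. HL-60 cells in RPMI 1640 plus 10% FBS had been rescreened against the full library at five tenfold concentrations of 1–10,000 nM, in duplicate on 384-well plates, with DMSO or 100 nM of one of three metabolic inhibitors, for 72 h at 37 °C, 5% CO2.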

[16] = tested on: K-562; experiment: cell viability (% survival relative to DMSO control, bortezomib = 0%); higher = less cytotoxic
In short: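 Reported values are percent survival from duplicate wells, averaged. Fifteen myeloid leukaemia cell lines were treated in 384-well plates with compounds at 1, 10, 100, 1000 or 10000 nM for 72 h at 37 °C in 5% CO2. Signals from CellTiter-Glo luminescence were scaled with vehicle as 100% and a 10 µM positive control as 0%.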

O=C(O)C1=CC(=C(c2ccc(O)c(C(=O)O)c2)c2ccc(O)c(C(=O)O)c2)C=CC1=O [Aurintricarboxylic acid]
cell viability [%]
Conditions	1 nM	10 nM	100 nM	1000 nM	10000 nM
[1]	98.4	90.3	91.9	> 100	> 100
[2]	> 100	95.8	> 100	> 100	> 100
[3]	96.4	> 100	89.3	86.6	87.3
[4]	99.3	81.2	83.3	> 100	91
[5]	92.5	> 100	98.6	> 100	92.1
[6]	> 100	88.3	91.7	> 100	> 100
[7]	89.1	91.4	94.1	> 100	93.4
[8]	96.5	97.4	99.8	> 100	99.6
[9]	98	99.7	97.8	> 100	98.8
[10]	92.5	87.6	79.7	94.2	79.4
[11]	> 100	99	88	> 100	53.2
[12]	> 100	> 100	99.7	91.7	> 100
[13]	87.2	94.1	> 100	> 100	70.9
[14]	92.9	94.4	96.2	> 100	> 100
[16]	88.9	104	82	101	128

cell viability [%], [15]
Conditions	0.001 µM	0.01 µM	0.1 µM	1 µM	10 µM
co-treatment: AZD3965 100 nM	95.9 ± 1.1	101 ± 7	101 ± 8.6	94.5 ± 6.3	98.9 ± 3.7
co-treatment: DMSO vehicle	101 ± 3.1	81.6 ± 29	106 ± 5.5	104 ± 6.9	97.6 ± 3.1
co-treatment: GSK2194069 100 nM	94.1 ± 0.2	82.3 ± 19	98.7 ± 6.2	98.3 ± 11	82.5 ± 11
co-treatment: pictilisib 100 nM	99.3 ± 2.4	99.3 ± 8.4	96.2 ± 11	101 ± 17	103 ± 9.1

Nc1nc(Cl)nc2c1ncn2[C@H]1C[C@H](O)[C@@H](CO)O1 [Cladribine]
cell viability [%]
Conditions	1 nM	10 nM	100 nM	1000 nM	10000 nM
[1]	95	33.1	0.135	2.16	6.29
[2]	> 100	96.6	76.6	59.8	63.8
[3]	95.4	82.7	88.4	60.2	13.9
[4]	99	55.6	13.5	4.74	6.11
[5]	90.7	75.3	17.3	3.16	0.937
[6]	50.7	35.2	9.01	0.265	1.33
[7]	96.2	54.6	12.5	4.44	4.27
[8]	94.5	83.1	54.4	20.5	7.86
[9]	> 100	89.8	53.5	15.5	10.1
[10]	88.1	77.7	12.6	3.65	3.19
[11]	84.9	34	< 0	1.24	4.28
[12]	92.1	69.8	7.92	6.26	6.06
[13]	97.6	82.8	17.1	< 0	< 0
[14]	95.2	98.3	> 100	90.3	94.1
[16]	110	97.5	79.8	28.8	20.5

cell viability [%], [15]
Conditions	0.001 µM	0.01 µM	0.1 µM	1 µM	10 µM
co-treatment: AZD3965 100 nM	100 ± 2.3	104 ± 3.5	67.648 ± 0.059	3.68 ± 1.7	3.27 ± 0.58
co-treatment: DMSO vehicle	101 ± 3	104 ± 1.1	88.9 ± 5.8	3.39 ± 2.3	4.06 ± 0.94
co-treatment: GSK2194069 100 nM	98.2 ± 5.8	101 ± 9.5	62.7 ± 7	3.78 ± 2	4.3 ± 2.3
co-treatment: pictilisib 100 nM	98.9 ± 5.9	102 ± 11	37.1 ± 4.7	3.81 ± 2.1	3.84 ± 2.1

COC(=O)[C@]12CCC(C)(C)C[C@H]1[C@H]1C(=O)C=C3[C@@]4(C)C=C(C#N)C(=O)C(C)(C)[C@@H]4CC[C@@]3(C)[C@]1(C)CC2 [Bardoxolone methyl]
cell viability [%]
Conditions	1 nM	10 nM	100 nM	1000 nM	10000 nM
[1]	82.4	56	11.8	2.87	91.9
[2]	> 100	91.2	87.7	> 100	7.29
[3]	95.2	79.4	21.8	69	0.4
[4]	84.5	96.4	33.3	70	1.48
[5]	73.4	72.5	47	2.03	25.8
[6]	65.9	47.9	5.56	6.86	7.88
[7]	86.5	80.8	57.3	4.17	31.2
[8]	97.3	92.7	77.3	95.8	52.6
[9]	> 100	93.5	78.5	34.7	77.6
[10]	67.7	97.5	78.5	9.52	61.5
[11]	65.1	25.4	0.492	0.773	3.59
[12]	83.7	74.8	10.9	0.308	< 0
[13]	97.6	67.2	2.85	< 0	< 0
[14]	85.8	68.1	61.9	61.3	2.44
[16]	106	97.5	114	98.8	86.9

cell viability [%], [15]
Conditions	0.001 µM	0.01 µM	0.1 µM	1 µM	10 µM
co-treatment: AZD3965 100 nM	101 ± 1.8	98 ± 5	110 ± 4	90.8 ± 16	32.6 ± 44
co-treatment: DMSO vehicle	102.3 ± 0.12	97.6 ± 2.4	101 ± 4.3	97.8 ± 1.5	107 ± 1.7
co-treatment: GSK2194069 100 nM	100 ± 3.3	92.7 ± 7.7	104 ± 3.8	88.8 ± 13	54.3 ± 56
co-treatment: pictilisib 100 nM	98.9 ± 1.8	78.7 ± 5.8	73.5 ± 3.1	78.4 ± 4.4	0.653 ± 0.12
